Peptide text beside a SMILES is read from it.
Tests used:
hORL1 receptor [1] = target: T1, hORL1 receptor (Homo sapiens, UniProt P41146); experiment: Binding to human ORL1 receptor expressed in CHO cells; set-up: expressed in transfected cells; host or cells: CHO
hORL1 receptor [2] = target: T1, hORL1 receptor; experiment: Efficacy: inhibition of forskolin-induced cAMP formation, hORL1 in CHO cells; format: cell-based; set-up: expressed in transfected cells; host or cells: CHO
Source text: The ORL1 receptor is negatively coupled to cAMP and thus the effect of ORL1 agonists are detected as an inhibition of forskolin-incuced cAMP formation. Six compounds of the invention have been tested for efficacy on hORL1 receptor expressed in CHO cells.

T1 sequence (P41146 whole entry): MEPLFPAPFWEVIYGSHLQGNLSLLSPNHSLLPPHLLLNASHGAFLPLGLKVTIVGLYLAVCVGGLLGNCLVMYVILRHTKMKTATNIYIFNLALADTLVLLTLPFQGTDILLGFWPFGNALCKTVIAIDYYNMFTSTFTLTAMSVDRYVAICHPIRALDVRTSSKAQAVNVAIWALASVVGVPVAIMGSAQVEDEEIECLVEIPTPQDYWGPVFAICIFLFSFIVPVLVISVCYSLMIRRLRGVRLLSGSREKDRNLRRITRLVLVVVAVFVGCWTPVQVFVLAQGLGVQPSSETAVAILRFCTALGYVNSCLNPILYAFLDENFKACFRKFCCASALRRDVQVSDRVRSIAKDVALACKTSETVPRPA

Which results are given for `CC(=O)N[C@H](CCCNC(=N)N)C(=O)N[C@H](Cc1ccc(O)cc1)C(=O)N[C@H](Cc1ccc(O)cc1)C(=O)N[C@H](CCCNC(=N)N)C(=O)N[C@H](Cc1c[nH]c2ccccc12)C(=O)N[C@H](CCCCN)C(=O)N[C@H](CCCCN)C(=O)N[C@H](CCCCN)C(=O)N[C@H](CCCCN)C(=O)N[C@H](CCCCN)C(=O)N[C@H](CCCCN)C(=O)N[C@H](CCCCN)C(N)=O` [Compound 8, Ac-RYYRWKKKKKKK-NH2 (all D)] (HELM PEPTIDE1{[ac].[dR].[dY].[dY].[dR].[dW].[dK].[dK].[dK].[dK].[dK].[dK].[dK].[am]}$$$$V2.0)?
IC50 (hORL1 receptor [1]): 78 nM; EC50 (hORL1 receptor [2]): 59 nM

Source: patent publication US7550425B2, “Diuretic peptide conjugates” (Zealand Pharma A/S, priority 2000, dated 2009)
